Columns and labels:
HCV replicon genotype 1b = assay: microbe, parasite or virus in culture; assay type: cell-based; conditions: genotype 1b replicon cells, incubated 96 hours, NS3/4A ELISA readout
HCV replicon genotype 1a = assay: microbe, parasite or virus in culture; assay type: cell-based; conditions: genotype 1a replicon cells, incubated 96 hours, NS3/4A ELISA readout

`CNC(=O)c1c(-c2ccc(F)cc2)oc2cc(N(C)S(C)(=O)=O)c(-c3ccc4c(n3)-c3cc5c(CN(C)C)cccc5n3CO4)cc12` [Compound 70] was tested, and the IC50 (HCV replicon genotype 1b; Hepatitis C virus, 96 h) was 18 nM and the IC50 (HCV replicon genotype 1a; Hepatitis C virus, 96 h) was 71 nM.
For `CNC(=O)c1c(-c2ccc(F)cc2)oc2cc(N(C)S(C)(=O)=O)c(-c3ccc4c(n3)-c3cc5cccc(CN(C)C)c5n3CO4)cc12` [Compound 71], the IC50 (HCV replicon genotype 1b; Hepatitis C virus, 96 h) was 4.5 nM and the IC50 (HCV replicon genotype 1a; Hepatitis C virus, 96 h) was 13 nM.
`CNC(=O)c1c(-c2ccc(F)cc2)oc2cc(N(C)S(C)(=O)=O)c(-c3ccc4c(n3)-c3cc5c(CO)cccc5n3CO4)cc12` [Compound 72, 2-(4-fluorophenyl)-5-(11-(hydroxymethyl)-6H-pyrido[2′,3′:5,6][1,3]oxazino[3,4-a]indol-2-yl)-N-methyl-6-(N-methylmethylsulfonamido)benzofuran-3-carboxamide] was tested, and the IC50 (HCV replicon genotype 1b; Hepatitis C virus, 96 h) was 9 nM and the IC50 (HCV replicon genotype 1a; Hepatitis C virus, 96 h) was 52 nM.
For `CNC(=O)c1c(-c2ccc(F)cc2)oc2cc(N(C)S(C)(=O)=O)c(-c3ccc4c(n3)-c3cc5c(C(N)=O)cccc5n3CO4)cc12` [Compound 73, 2-(2-(4-fluorophenyl)-3-(methylcarbamoyl)-6-(N-methylmethylsulfonamido)benzofuran-5-yl)-6H-pyrido[2′,3′:5,6][1,3]oxazino[3,4-a]indole-11-carboxamide], the IC50 (HCV replicon genotype 1b; Hepatitis C virus, 96 h) was 36 nM and the IC50 (HCV replicon genotype 1a; Hepatitis C virus, 96 h) was 625 nM.
`CNC(=O)c1c(-c2ccc(F)cc2)oc2cc(N(C)S(C)(=O)=O)c(-c3cc4c(c[n+]3[O-])OCn3c-4cc4c(F)cccc43)cc12` [Compound 74] was tested, and the IC50 (HCV replicon genotype 1b; Hepatitis C virus, 96 h) was 25 nM and the IC50 (HCV replicon genotype 1a; Hepatitis C virus, 96 h) was 15 nM.
`CNC(=O)c1c(-c2ccc(F)cc2)oc2cc(N(C)S(C)(=O)=O)c(-c3ccc4c(c3)-c3cc5ccccc5n3CC(O)CO4)cc12` (centres unmarked) [Compound 75, 2-(4-fluorophenyl)-5-(7-hydroxy-7,8-dihydro-6H-benzo[2,3][1,5]oxazocino[5,4-a]indol-2-yl)-N-methyl-6-(N-methylmethylsulfonamido)benzofuran-3-carboxamide] was tested, and the IC50 (HCV replicon genotype 1b; Hepatitis C virus, 96 h) was 2.6 nM and the IC50 (HCV replicon genotype 1a; Hepatitis C virus, 96 h) was 2.8 nM.
Work on `CNC(=O)c1c(-c2ccc(F)cc2)oc2cc(N(C)S(C)(=O)=O)c(-c3ccc4c(c3)-c3cc5ccccc5n3CC(F)CO4)cc12` (centres unmarked) [Compound 76, 5-(7-fluoro-7,8-dihydro-6H-benzo[2,3][1,5]oxazocino[5,4-a]indol-2-yl)-2-(4-fluorophenyl)-N-methyl-6-(N-methylmethylsulfonamido)benzofuran-3-carboxamide] yielded an IC50 (HCV replicon genotype 1b; Hepatitis C virus, 96 h) of 5.8 nM and an IC50 (HCV replicon genotype 1a; Hepatitis C virus, 96 h) of 4.5 nM.
`CNC(=O)c1c(-c2ccc(F)cc2)oc2cc(N(C)S(C)(=O)=O)c(-c3ccc4c(c3)-c3cc5ccccc5n3CC(F)(F)CO4)cc12` [Compound 77, 5-(7,7-difluoro-7,8-dihydro-6H-benzo[2,3][1,5]oxazocino[5,4-a]indol-2-yl)-2-(4-fluorophenyl)-N-methyl-6-(N-methylmethylsulfonamido)benzofuran-3-carboxamide] gave an IC50 (HCV replicon genotype 1b; Hepatitis C virus, 96 h) of 11 nM and an IC50 (HCV replicon genotype 1a; Hepatitis C virus, 96 h) of 10 nM.
Work on `CNC(=O)c1c(-c2ccc(F)cc2)oc2cc(N(C)S(C)(=O)=O)c(-c3ccc4c(c3)-c3cc5ccccc5n3CC(C)(O)CO4)cc12` (centres unmarked) [Compound 78, 2-(4-fluorophenyl)-5-(7-hydroxy-7-methyl-7,8-dihydro-6H-benzo[2,3][1,5]oxazocino[5,4-a]indol-2-yl)-N-methyl-6-(N-methylmethylsulfonamido)benzofuran-3-carboxamide] yielded an IC50 (HCV replicon genotype 1b; Hepatitis C virus, 96 h) of 3.5 nM and an IC50 (HCV replicon genotype 1a; Hepatitis C virus, 96 h) of 5.7 nM.
`CNC(=O)c1c(-c2ccc(F)cc2)oc2cc(N(C)S(C)(=O)=O)c(-c3ccc4c(c3)-c3cc5ccccc5n3CC(O)(C(F)(F)F)CO4)cc12` (centres unmarked) [Compound 79, 2-(4-fluorophenyl)-5-(7-hydroxy-7-(trifluoromethyl)-7,8-dihydro-6H-benzo[2,3][1,5]oxazocino[5,4-a]indol-2-yl)-N-methyl-6-(N-methylmethylsulfonamido)benzofuran-3-carboxamide] gave an IC50 (HCV replicon genotype 1b; Hepatitis C virus, 96 h) of 11 nM and an IC50 (HCV replicon genotype 1a; Hepatitis C virus, 96 h) of 10 nM.
`CNC(=O)c1c(-c2ccc(F)cc2)oc2cc(N(C)S(C)(=O)=O)c(-c3ccc4c(c3)-c3cc5ccccc5n3CC(NCCN(C)C)CO4)cc12` (centres unmarked) [Compound 80, 5-(7-((2-(dimethylamino)ethyl)amino)-7,8-dihydro-6H-benzo[2,3][1,5]oxazocino[5,4-a]indol-2-yl)-2-(4-fluorophenyl)-N-methyl-6-(N-methylmethylsulfonamido)benzofuran-3-carboxamide] gave an IC50 (HCV replicon genotype 1b; Hepatitis C virus, 96 h) of 15 nM and an IC50 (HCV replicon genotype 1a; Hepatitis C virus, 96 h) of 18 nM.
With `CNC(=O)c1c(-c2ccc(F)cc2)oc2cc(N(C)S(C)(=O)=O)c(-c3ccc4c(c3)-c3cc5ccccc5n3CC(NCCCN(C)C)CO4)cc12` (centres unmarked) [Compound 81] the IC50 (HCV replicon genotype 1b; Hepatitis C virus, 96 h) was 22 nM and the IC50 (HCV replicon genotype 1a; Hepatitis C virus, 96 h) was 36 nM.
`CNC(=O)c1c(-c2ccc(F)cc2)oc2cc(N(C)S(C)(=O)=O)c(-c3ccc4c(c3)-c3cc5ccccc5n3CC(NC3CCN(C)CC3)CO4)cc12` (centres unmarked) [Compound 82] was tested, and the IC50 (HCV replicon genotype 1b; Hepatitis C virus, 96 h) was 11 nM and the IC50 (HCV replicon genotype 1a; Hepatitis C virus, 96 h) was 15 nM.
In the case of `CNC(=O)c1c(-c2ccc(F)cc2)oc2cc(N(C)S(C)(=O)=O)c(-c3ccc4c(c3)-c3cc5ccccc5n3CC(NCCN3CCOCC3)CO4)cc12` (centres unmarked) [Compound 83], the IC50 (HCV replicon genotype 1b; Hepatitis C virus, 96 h) is reported as 12 nM and the IC50 (HCV replicon genotype 1a; Hepatitis C virus, 96 h) is reported as 15 nM.
`CNC(=O)c1c(-c2ccc(F)cc2)oc2cc(N(C)S(C)(=O)=O)c(-c3ccc4c(c3)-c3cc5ccccc5n3CC(NCCN3CCCC3)CO4)cc12` (centres unmarked) [Compound 84] was tested, and the IC50 (HCV replicon genotype 1b; Hepatitis C virus, 96 h) was 16 nM and the IC50 (HCV replicon genotype 1a; Hepatitis C virus, 96 h) was 26 nM.
For `CNC(=O)c1c(-c2ccc(F)cc2)oc2cc(N(C)S(C)(=O)=O)c(-c3ccc4c(c3)-c3cc5ccccc5n3CC(NCCO)CO4)cc12` (centres unmarked) [Compound 85], the IC50 (HCV replicon genotype 1b; Hepatitis C virus, 96 h) was 7.7 nM and the IC50 (HCV replicon genotype 1a; Hepatitis C virus, 96 h) was 13 nM.
In the case of `CNC(=O)c1c(-c2ccc(F)cc2)oc2cc(N(C)S(C)(=O)=O)c(-c3ccc4c(c3)-c3cc5ccccc5n3CC(N(C)CCO)CO4)cc12` (centres unmarked) [Compound 86], the IC50 (HCV replicon genotype 1b; Hepatitis C virus, 96 h) is reported as 12 nM and the IC50 (HCV replicon genotype 1a; Hepatitis C virus, 96 h) is reported as 17 nM.
`CNC(=O)c1c(-c2ccc(F)cc2)oc2cc(N(C)S(C)(=O)=O)c(-c3ccc4c(n3)-c3cc5c(F)cccc5n3C(CO)O4)cc12` (centres unmarked) [Compound 87, 5-(11-fluoro-6-(hydroxymethyl)-6H-pyrido[2′,3′:5,6][1,3]oxazino[3,4-a]indol-2-yl)-2-(4-fluorophenyl)-N-methyl-6-(N-methylmethylsulfonamido)benzofuran-3-carboxamide] showed an IC50 (HCV replicon genotype 1b; Hepatitis C virus, 96 h) of 3.3 nM and an IC50 (HCV replicon genotype 1a; Hepatitis C virus, 96 h) of 3 nM.
Work on `CNC(=O)c1c(-c2ccc(F)cc2)oc2cc(N(C)S(C)(=O)=O)c(-c3ccc4c(n3)-c3cc5c(F)cccc5n3C(CO)O4)cc12` (centres unmarked) [Compound 88, 5-(11-fluoro-6-(hydroxymethyl)-6H-pyrido[2′,3′:5,6][1,3]oxazino[3,4-a]indol-2-yl)-2-(4-fluorophenyl)-N-methyl-6-(N-methylmethylsulfonamido)benzofuran-3-carboxamide] yielded an IC50 (HCV replicon genotype 1b) of 2.6 nM and an IC50 (HCV replicon genotype 1a) of 2.7 nM.
`CNC(=O)c1c(-c2ccc(F)cc2)oc2cc(N(C)S(C)(=O)=O)c(-c3cc4c(cn3)OC(CO)n3c-4cc4c(F)cccc43)cc12` (centres unmarked) [Compound 89] was tested, and the IC50 (HCV replicon genotype 1b) was 0.9 nM and the IC50 (HCV replicon genotype 1a) was 1.1 nM.
Work on `CNC(=O)c1c(-c2ccc(F)cc2)oc2cc(N(C)S(C)(=O)=O)c(-c3cc4c(cn3)OC(CO)n3c-4cc4c(F)cccc43)cc12` (centres unmarked) [Compound 90] yielded an IC50 (HCV replicon genotype 1b) of 2.4 nM and an IC50 (HCV replicon genotype 1a) of 5.5 nM.
`CNC(=O)c1c(-c2ccc(F)cc2)oc2cc(N(C)S(C)(=O)=O)c(-c3ccc4c(n3)-c3cc5c(F)cccc5n3C(C)(CO)O4)cc12` (centres unmarked) [Compound 91] showed an IC50 (HCV replicon genotype 1b; Hepatitis C virus, 96 h) of 7.4 nM and an IC50 (HCV replicon genotype 1a; Hepatitis C virus, 96 h) of 3.3 nM.
Work on `CNC(=O)c1c(-c2ccc(F)cc2)oc2cc(N(C)S(C)(=O)=O)c(-c3ccc4c(n3)-c3cc5c(F)cccc5n3C(C)(CO)O4)cc12` (centres unmarked) [Compound 92] yielded an IC50 (HCV replicon genotype 1b) of 6.5 nM and an IC50 (HCV replicon genotype 1a) of 4.2 nM.
Work on `CNC(=O)c1c(-c2ccc(F)cc2)oc2cc(N(C)S(C)(=O)=O)c(-c3ccc4c(n3)-c3cc5c(F)cccc5n3C(C(OC)OC)O4)cc12` (centres unmarked) [Compound 93] yielded an IC50 (HCV replicon genotype 1b; Hepatitis C virus, 96 h) of 6 nM and an IC50 (HCV replicon genotype 1a; Hepatitis C virus, 96 h) of 4.4 nM.
`CNC(=O)c1c(-c2ccc(F)cc2)oc2cc(N(C)S(C)(=O)=O)c(-c3ccc4c(n3)-c3cc5c(F)cccc5n3C(CO)(CO)O4)cc12` [Compound 94] was tested, and the IC50 (HCV replicon genotype 1b; Hepatitis C virus, 96 h) was 5.6 nM and the IC50 (HCV replicon genotype 1a; Hepatitis C virus, 96 h) was 2.3 nM.
With `CNC(=O)c1c(-c2ccc(F)cc2)oc2cc(N(C)S(C)(=O)=O)c(-c3ccc4c(n3)-c3cc5c(F)cccc5n3C(COC)O4)cc12` (centres unmarked) [Compound 95] the IC50 (HCV replicon genotype 1b; Hepatitis C virus, 96 h) was 5.3 nM and the IC50 (HCV replicon genotype 1a; Hepatitis C virus, 96 h) was 3.2 nM.
`CNC(=O)c1c(-c2ccc(F)cc2)oc2cc(N(C)S(C)(=O)=O)c(-c3ccc4c(n3)-c3cc5c(F)cccc5n3C(COC)O4)cc12` (centres unmarked) [Compound 96] gave an IC50 (HCV replicon genotype 1b) of 5.1 nM and an IC50 (HCV replicon genotype 1a) of 4.1 nM.
Compound `CNC(=O)c1c(-c2ccc(F)cc2)oc2cc(N(C)S(C)(=O)=O)c(-c3ccc4c(n3)-c3cc5c(F)cccc5n3C3(COC3)O4)cc12` [Compound 97] has an IC50 (HCV replicon genotype 1b; Hepatitis C virus, 96 h) of 4.4 nM and an IC50 (HCV replicon genotype 1a; Hepatitis C virus, 96 h) of 2.9 nM.
`CNC(=O)c1c(-c2ccc(F)cc2)oc2cc(N(C)S(C)(=O)=O)c(-c3ccc4c(n3)-c3cc5c(F)cccc5n3C(CF)O4)cc12` (centres unmarked) [Compound 98, 5-(11-fluoro-6-(fluoromethyl)-6H-pyrido[2′,3′:5,6][1,3]oxazino[3,4-a]indol-2-yl)-2-(4-fluorophenyl)-N-methyl-6-(N-methylmethylsulfonamido)benzofuran-3-carboxamide] was tested, and the IC50 (HCV replicon genotype 1b; Hepatitis C virus, 96 h) was 6.3 nM and the IC50 (HCV replicon genotype 1a; Hepatitis C virus, 96 h) was 3.9 nM.
`CNC(=O)c1c(-c2ccc(F)cc2)oc2cc(N(C)S(C)(=O)=O)c(-c3ccc4c(n3)-c3cc5c(F)cccc5n3C(CCO)O4)cc12` (centres unmarked) [Compound 99, 5-(11-fluoro-6-(2-hydroxyethyl)-6H-pyrido[2′,3′:5,6][1,3]oxazino[3,4-a]indol-2-yl)-2-(4-fluorophenyl)-N-methyl-6-(N-methylmethylsulfonamido)benzofuran-3-carboxamide] showed an IC50 (HCV replicon genotype 1b; Hepatitis C virus, 96 h) of 4.6 nM and an IC50 (HCV replicon genotype 1a; Hepatitis C virus, 96 h) of 1.9 nM.
`CNC(=O)c1c(-c2ccc(F)cc2)oc2cc(N(C)S(C)(=O)=O)c(-c3ccc4c(n3)-c3cc5c(F)cccc5n3C(CCO)O4)cc12` (centres unmarked) [Compound 100, 5-(11-fluoro-6-(2-hydroxyethyl)-6H-pyrido[2′,3′:5,6][1,3]oxazino[3,4-a]indol-2-yl)-2-(4-fluorophenyl)-N-methyl-6-(N-methylmethylsulfonamido)benzofuran-3-carboxamide] showed an IC50 (HCV replicon genotype 1b) of 3.6 nM and an IC50 (HCV replicon genotype 1a) of 3.3 nM.
